Assay results as given in patent publication EP4596574A1, “GLP-1/GCG/GIP TRIPLE-RECEPTOR AGONIST AND USE THEREOF” (Sunshine Lake Pharma Co., Ltd., priority 2022, dated 2024).
Starred links: 1 amine or outer side, 2 acyl side, 3 side chain; linkers in the order of their positions; H or OH if unused. Non-standard residues stand in square brackets, D forms with d. Residues, ends and D or L forms follow the SMILES beside them. Groups on a side chain read outwards from the residue. *: point of attachment. C20 diacid = O=C(O)CCCCCCCCCCCCCCCCCCC(=O)*; C18 diacid = O=C(O)CCCCCCCCCCCCCCCCC(=O)*; αMePhe(2-F) = C[C@](N)(Cc1ccccc1F)C(=O)O; γGlu = O=C(O)[C@H](CCC(=O)[*:2])N[*:1]; AEEA = NCCOCCOCC(=O)O; Aib = CC(C)(N)C(=O)O

Legend:
Assay type in all cases: cell-based
GLP-1R = molecular target: T1, GLP-1R (Homo sapiens, UniProt P43220); experiment: In vitro cell activity, cAMP production in HEK293 cells expressing GLP-1R; conditions: HEK293-GLP-1R cells, cAMP; read-out: GLP-1R (EC50)
T1 construct: expressed in transfected cells; host or cells: HEK293 (HEK293-GLP-1R)
Outline: (§1)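 cAMP output read as 665/620 nm HTRF ratio after adding cAMP-d2 plus anti-cAMP cryptate and incubating 1 h at room temperature in the dark or overnight at 4 °C. Cells: HEK293 expressing human GLP-1R or GCGR, plated from a 4×10^5 cells/mL suspension. Four-parameter fit gives EC50.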

GCGR = molecular target: T2, GCGR (Homo sapiens, UniProt P47871); experiment: In vitro cell activity, cAMP production in HEK293 cells expressing GCGR; conditions: HEK293-GCGR cells, cAMP; read-out: GCGR (EC50)
T2 construct: expressed in transfected cells; host or cells: HEK293 (HEK293-GCGR)
Outline: as §1

GIPR = molecular target: T3, GIPR (Homo sapiens, UniProt P48546); experiment: In vitro cell activity, cAMP production in HEK293 cells expressing GIPR; conditions: HEK293-GIPR cells, cAMP; read-out: GIPR (EC50)
T3 construct: expressed in transfected cells; host or cells: HEK293 (HEK293-GIPR)
T3 sequence (P48546 22-466): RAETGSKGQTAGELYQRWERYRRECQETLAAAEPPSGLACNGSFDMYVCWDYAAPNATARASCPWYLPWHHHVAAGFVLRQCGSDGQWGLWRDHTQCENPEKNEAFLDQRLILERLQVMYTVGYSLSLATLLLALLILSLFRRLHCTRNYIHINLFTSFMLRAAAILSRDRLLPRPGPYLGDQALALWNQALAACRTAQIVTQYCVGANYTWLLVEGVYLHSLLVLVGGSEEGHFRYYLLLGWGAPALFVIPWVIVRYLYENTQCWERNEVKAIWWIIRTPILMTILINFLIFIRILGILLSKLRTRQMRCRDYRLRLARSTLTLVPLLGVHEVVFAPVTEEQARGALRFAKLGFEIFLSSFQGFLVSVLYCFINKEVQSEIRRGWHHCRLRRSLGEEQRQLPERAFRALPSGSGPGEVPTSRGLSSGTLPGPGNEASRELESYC
Outline: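 HEK293 cells expressing human GIPR, thawed and diluted to 4×10^5 cells/mL, are stimulated with test compound. cAMP is measured by HTRF competition between cAMP-d2 and anti-cAMP cryptate. EC50 comes from a four-parameter nonlinear fit of signal ratio against concentration.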

T2 sequence (P47871 26-477, species assumed): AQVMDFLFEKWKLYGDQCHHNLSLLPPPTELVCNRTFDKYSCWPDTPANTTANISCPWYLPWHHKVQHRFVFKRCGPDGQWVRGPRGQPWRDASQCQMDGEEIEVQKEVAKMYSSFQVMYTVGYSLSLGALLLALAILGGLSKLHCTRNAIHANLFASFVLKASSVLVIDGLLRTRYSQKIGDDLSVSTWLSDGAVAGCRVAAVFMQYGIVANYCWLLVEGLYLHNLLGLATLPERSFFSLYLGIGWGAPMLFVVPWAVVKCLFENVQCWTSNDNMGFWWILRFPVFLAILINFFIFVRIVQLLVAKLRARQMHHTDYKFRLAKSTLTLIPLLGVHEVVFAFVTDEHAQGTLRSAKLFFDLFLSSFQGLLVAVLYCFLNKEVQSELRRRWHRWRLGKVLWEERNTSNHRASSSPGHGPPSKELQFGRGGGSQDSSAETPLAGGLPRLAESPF
T1 sequence (P43220 24-463, species assumed): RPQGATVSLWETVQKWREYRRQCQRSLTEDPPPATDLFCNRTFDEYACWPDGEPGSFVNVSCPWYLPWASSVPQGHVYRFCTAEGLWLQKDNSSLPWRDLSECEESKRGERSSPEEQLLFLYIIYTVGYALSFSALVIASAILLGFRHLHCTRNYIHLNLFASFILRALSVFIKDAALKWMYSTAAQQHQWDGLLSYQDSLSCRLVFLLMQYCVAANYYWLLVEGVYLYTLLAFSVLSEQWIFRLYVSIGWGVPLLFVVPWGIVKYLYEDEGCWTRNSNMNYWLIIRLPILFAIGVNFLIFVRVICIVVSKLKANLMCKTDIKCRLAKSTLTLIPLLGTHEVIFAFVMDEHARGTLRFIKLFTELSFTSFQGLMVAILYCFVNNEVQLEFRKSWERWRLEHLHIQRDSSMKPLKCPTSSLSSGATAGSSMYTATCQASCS

| SMILES | EC50 (GLP-1R) [nM] | EC50 (GCGR) [nM] | EC50 (GIPR) [nM] |
| --- | --- | --- | --- |
| CC[C@H](C)[C@H](NC(=O)[C@H](CC(C)C)NC(=O)[C@H](Cc1c[nH]c2ccccc12)NC(=O)[C@H](CCC(=O)O)NC(=O)[C@@H](NC(=O)[C@H](Cc1ccccc1)NC(=O)[C@H](CC(=O)O)NC(=O)[C@H](CCC(N)=O)NC(=O)[C@H](CCC(N)=O)NC(=O)[C@H](C)NC(=O)[C@H](CCCCNC(=O)COCCOCCNC(=O)CC[C@H](NC(=O)CCCCCCCCCCCCCCCCCCC(=O)O)C(=O)O)NC(=O)[C@H](CCC(=O)O)NC(=O)[C@H](CC(=O)O)NC(=O)[C@H](CC(C)C)NC(=O)[C@H](CC(C)C)NC(=O)[C@@H](NC(=O)[C@H](CO)NC(=O)[C@H](Cc1ccc(O)cc1)NC(=O)[C@H](CC(=O)O)NC(=O)[C@H](CO)NC(=O)[C@@H](NC(=O)[C@](C)(Cc1ccccc1F)NC(=O)[C@@H](NC(=O)CNC(=O)[C@H](CCC(N)=O)NC(=O)C(C)(C)NC(=O)[C@@H](N)Cc1ccc(O)cc1)[C@@H](C)O)[C@@H](C)O)[C@@H](C)CC)[C@@H](C)CC)C(=O)N[C@@H](C)C(=O)NCC(=O)NCC(=O)N1CCC[C@H]1C(=O)N[C@@H](CO)C(=O)N[C@@H](CO)C(=O)NCC(=O)N[C@@H](C)C(=O)N1CCC[C@H]1C(=O)N1CCC[C@H]1C(=O)N1CCC[C@H]1C(=O)N[C@@H](CO)C(=O)O [HEC-PT69] | 2.18 | 30.8 | 0.419 |
| CC[C@H](C)[C@H](NC(=O)[C@H](CCC(=O)O)NC(=O)[C@H](CC(=O)O)NC(=O)[C@H](CC(C)C)NC(=O)[C@H](CC(C)C)NC(=O)[C@@H](NC(=O)[C@H](CO)NC(=O)[C@H](Cc1ccc(O)cc1)NC(=O)[C@H](CC(=O)O)NC(=O)[C@H](CO)NC(=O)[C@@H](NC(=O)[C@](C)(Cc1ccccc1F)NC(=O)[C@@H](NC(=O)CNC(=O)[C@H](Cc1c[nH]cn1)NC(=O)C(C)(C)NC(=O)[C@@H](N)Cc1ccc(O)cc1)[C@@H](C)O)[C@@H](C)O)[C@@H](C)CC)C(=O)N[C@@H](C)C(=O)N[C@@H](CCC(N)=O)C(=O)N[C@@H](CCCCNC(=O)COCCOCCNC(=O)COCCOCCNC(=O)CC[C@H](NC(=O)CCCCCCCCCCCCCCCCCCC(=O)O)C(=O)O)C(=O)N[C@@H](CC(=O)O)C(=O)N[C@@H](Cc1ccccc1)C(=O)N[C@H](C(=O)N[C@@H](CCC(=O)O)C(=O)N[C@@H](Cc1c[nH]c2ccccc12)C(=O)N[C@@H](CC(C)C)C(=O)N[C@@H](CC(C)C)C(=O)N[C@@H](CCC(=O)O)C(=O)NCC(=O)NCC(=O)N1CCC[C@H]1C(=O)N[C@@H](CO)C(=O)N[C@@H](CO)C(=O)NCC(=O)N[C@@H](C)C(=O)N1CCC[C@H]1C(=O)N1CCC[C@H]1C(=O)N1CCC[C@H]1C(=O)N[C@@H](CO)C(=O)O)[C@@H](C)CC [HEC-PT66] (H-Y[Aib]HGT[αMePhe(2-F)]TSDYSILLDEIAQK([AEEA-AEEA-γGlu-C20 diacid])DFIEWLLEGGPSSGAPPPS-OH) | 7.14 | 12.3 | 0.213 |
| CC[C@H](C)[C@H](NC(=O)[C@H](Cc1ccccc1)NC(=O)[C@H](CCC(=O)O)NC(=O)[C@H](CCCCNC(=O)COCCOCCNC(=O)CC[C@H](NC(=O)CCCCCCCCCCCCCCCCC(=O)O)C(=O)O)NC(=O)[C@H](CCC(N)=O)NC(=O)[C@H](CCCNC(=N)N)NC(=O)[C@@H](NC(=O)[C@H](CCCNC(=N)N)NC(=O)[C@H](CC(=O)O)NC(=O)[C@H](CC(C)C)NC(=O)[C@H](CC(C)C)NC(=O)[C@@H](NC(=O)[C@H](CO)NC(=O)[C@H](Cc1ccc(O)cc1)NC(=O)[C@H](CC(=O)O)NC(=O)[C@H](CO)NC(=O)[C@@H](NC(=O)[C@](C)(Cc1ccccc1F)NC(=O)[C@@H](NC(=O)CNC(=O)[C@H](CCC(N)=O)NC(=O)C(C)(C)NC(=O)[C@@H](N)Cc1ccc(O)cc1)[C@@H](C)O)[C@@H](C)O)[C@@H](C)CC)[C@@H](C)CC)C(=O)N[C@@H](CCC(=O)O)C(=O)N[C@@H](Cc1c[nH]c2ccccc12)C(=O)N[C@@H](CC(C)C)C(=O)N[C@@H](CC(C)C)C(=O)N[C@@H](C)C(=O)NCC(=O)NCC(=O)N1CCC[C@H]1C(=O)N[C@@H](CO)C(=O)N[C@@H](CO)C(=O)NCC(=O)N[C@@H](C)C(=O)N1CCC[C@H]1C(=O)N1CCC[C@H]1C(=O)N1CCC[C@H]1C(=O)N[C@@H](CO)C(=O)O [HEC-PT125] (H-Y[Aib]QGT[αMePhe(2-F)]TSDYSILLDRIRQK([AEEA-γGlu-C18 diacid])EFIEWLLAGGPSSGAPPPS-OH) | 0.123 | 0.0269 | 0.0217 |
| CC[C@H](C)[C@H](NC(=O)[C@H](Cc1ccccc1)NC(=O)[C@H](C)NC(=O)[C@H](Cc1c[nH]cn1)NC(=O)[C@H](CCC(N)=O)NC(=O)[C@H](C)NC(=O)[C@H](CCCCNC(=O)COCCOCCNC(=O)CC[C@H](NC(=O)CCCCCCCCCCCCCCCCC(=O)O)C(=O)O)NC(=O)[C@H](CCCNC(=N)N)NC(=O)[C@H](CC(=O)O)NC(=O)[C@H](CC(C)C)NC(=O)[C@H](CC(C)C)NC(=O)[C@@H](NC(=O)[C@H](CO)NC(=O)[C@H](Cc1ccc(O)cc1)NC(=O)[C@H](CC(=O)O)NC(=O)[C@H](CO)NC(=O)[C@@H](NC(=O)[C@](C)(Cc1ccccc1F)NC(=O)[C@@H](NC(=O)CNC(=O)[C@H](CCC(N)=O)NC(=O)C(C)(C)NC(=O)[C@@H](N)Cc1c[nH]cn1)[C@@H](C)O)[C@@H](C)O)[C@@H](C)CC)C(=O)N[C@@H](CCC(=O)O)C(=O)N[C@@H](Cc1ccc(O)cc1)C(=O)N[C@@H](CC(C)C)C(=O)N[C@@H](CC(C)C)C(=O)N[C@@H](C)C(=O)NCC(=O)NCC(=O)N1CCC[C@H]1C(=O)N[C@@H](CO)C(=O)N[C@@H](CO)C(=O)NCC(=O)N[C@@H](C)C(=O)N1CCC[C@H]1C(=O)N1CCC[C@H]1C(=O)N1CCC[C@H]1C(=O)N[C@@H](CO)C(=O)O [HEC-PT155] | 0.0555 | 0.0581 | 0.0509 |
| CC[C@H](C)[C@H](NC(=O)[C@H](CCCCN)NC(=O)[C@H](CC(=O)O)NC(=O)[C@H](CCCCNC(=O)COCCOCCNC(=O)CC[C@H](NC(=O)CCCCCCCCCCCCCCCCC(=O)O)C(=O)O)NC(=O)[C@H](CC(C)C)NC(=O)[C@@H](NC(=O)[C@H](CO)NC(=O)[C@H](Cc1ccc(O)cc1)NC(=O)[C@H](CC(=O)O)NC(=O)[C@H](CO)NC(=O)[C@@H](NC(=O)[C@](C)(Cc1ccccc1F)NC(=O)[C@@H](NC(=O)CNC(=O)[C@H](CCC(N)=O)NC(=O)C(C)(C)NC(=O)[C@@H](N)Cc1ccc(O)cc1)[C@@H](C)O)[C@@H](C)O)[C@@H](C)CC)C(=O)N[C@@H](C)C(=O)N[C@@H](CCC(N)=O)C(=O)N[C@@H](CCCCN)C(=O)N[C@@H](C)C(=O)N[C@@H](Cc1ccccc1)C(=O)N[C@H](C(=O)N[C@@H](CCC(=O)O)C(=O)N[C@@H](Cc1ccc(O)cc1)C(=O)N[C@@H](CC(C)C)C(=O)N[C@@H](CC(C)C)C(=O)N[C@@H](C)C(=O)NCC(=O)NCC(=O)N1CCC[C@H]1C(=O)N[C@@H](CO)C(=O)N[C@@H](CO)C(=O)NCC(=O)N[C@@H](C)C(=O)N1CCC[C@H]1C(=O)N1CCC[C@H]1C(=O)N1CCC[C@H]1C(=O)N[C@@H](CO)C(N)=O)[C@@H](C)CC [HEC-PT140] (H-Y[Aib]QGT[αMePhe(2-F)]TSDYSILK([AEEA-γGlu-C18 diacid])DKIAQKAFIEYLLAGGPSSGAPPPS-NH2) | 0.152 | 0.272 | 0.0543 |
| CC[C@H](C)[C@H](NC(=O)[C@H](Cc1ccccc1)NC(=O)[C@H](C)NC(=O)[C@H](CCCNC(=N)N)NC(=O)[C@H](CCC(N)=O)NC(=O)[C@H](CCCNC(=N)N)NC(=O)[C@H](CCCCNC(=O)COCCOCCNC(=O)CC[C@H](NC(=O)CCCCCCCCCCCCCCCCC(=O)O)C(=O)O)NC(=O)[C@H](CCC(=O)O)NC(=O)[C@H](CC(=O)O)NC(=O)[C@H](CC(C)C)NC(=O)[C@H](CC(C)C)NC(=O)[C@@H](NC(=O)[C@H](CO)NC(=O)[C@H](Cc1ccc(O)cc1)NC(=O)[C@H](CC(=O)O)NC(=O)[C@H](CO)NC(=O)[C@@H](NC(=O)[C@](C)(Cc1ccccc1F)NC(=O)[C@@H](NC(=O)CNC(=O)[C@H](Cc1c[nH]cn1)NC(=O)C(C)(C)NC(=O)[C@@H](N)Cc1ccc(O)cc1)[C@@H](C)O)[C@@H](C)O)[C@@H](C)CC)C(=O)N[C@@H](CCC(=O)O)C(=O)N[C@@H](Cc1ccc(O)cc1)C(=O)N[C@@H](CC(C)C)C(=O)N[C@@H](CC(C)C)C(=O)N[C@@H](CCC(=O)O)C(=O)NCC(=O)NCC(=O)N1CCC[C@H]1C(=O)N[C@@H](CO)C(=O)N[C@@H](CO)C(=O)NCC(=O)N[C@@H](C)C(=O)N1CCC[C@H]1C(=O)N1CCC[C@H]1C(=O)N1CCC[C@H]1C(=O)N[C@@H](CO)C(=O)O [HEC-PT120] | 0.406 | 0.2 | 0.188 |
